Assay results published in patent publication US10039845B2, “Labeled inhibitors of prostate specific membrane antigen (PSMA) biological evaluation, and use of imaging agents” (THE JOHNS HOPKINS UNIVERSITY, priority 2007, dated 2018).

Columns and labels:
[1] = test system: LNCaP (PSMA+) tumor; test: In vivo binding specificity (blocking) study, SPECT-CT; set-up: species or system mice; conditions: LNCaP tumor bearing animal, PMPA 50 mg/kg (1 mg), images 30-60 min postinjection
Protocol: SPECT-CT imaging was then performed as described above, with both animals on the scanner gantry.

[2] = biological target: T1, PSMA (Homo sapiens, UniProt Q04609); test: NAALADase assay (NAAG hydrolysis, LNCaP cell extracts); assay type: biochemical
T1 construct: LNCaP cell extracts were prepared by sonication in NAALADase buffer; endogenous in cells; host or cells: LNCaP cell extract (sonicated in 50 mM Tris pH 7.4, 0.5% Triton X-100)
T1 sequence (Q04609 whole entry): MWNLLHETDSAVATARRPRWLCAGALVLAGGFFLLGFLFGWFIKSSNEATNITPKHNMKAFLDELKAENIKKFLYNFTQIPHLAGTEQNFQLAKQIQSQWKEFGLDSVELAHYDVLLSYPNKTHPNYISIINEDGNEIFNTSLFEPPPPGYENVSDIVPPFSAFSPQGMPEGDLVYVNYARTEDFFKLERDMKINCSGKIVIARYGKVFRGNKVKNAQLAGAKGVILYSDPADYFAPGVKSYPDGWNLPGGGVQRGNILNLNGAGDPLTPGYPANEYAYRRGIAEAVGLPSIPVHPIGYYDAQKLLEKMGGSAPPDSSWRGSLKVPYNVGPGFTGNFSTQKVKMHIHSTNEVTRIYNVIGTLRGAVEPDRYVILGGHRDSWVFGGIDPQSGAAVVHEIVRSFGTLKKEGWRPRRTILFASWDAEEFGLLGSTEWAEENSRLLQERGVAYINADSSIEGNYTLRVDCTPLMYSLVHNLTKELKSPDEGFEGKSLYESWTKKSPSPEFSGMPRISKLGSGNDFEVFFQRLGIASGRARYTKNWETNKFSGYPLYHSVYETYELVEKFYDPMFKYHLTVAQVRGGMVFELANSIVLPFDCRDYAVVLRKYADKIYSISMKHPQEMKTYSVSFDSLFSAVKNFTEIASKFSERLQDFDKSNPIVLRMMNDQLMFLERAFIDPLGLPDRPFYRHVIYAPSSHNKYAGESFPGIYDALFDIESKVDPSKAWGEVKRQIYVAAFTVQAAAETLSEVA
Protocol: The relative binding affinities of L1-L7 and ReL1-ReL7, were determined using the N-acetylated-α-linked acidic dipeptidase (NAALADase) assay as previously described.
NAAG hydrolysis was performed essentially as described previously (Robinson, M. B.; et al. J Biol Chem 1987, 262, 14498-14506; Lupold, S. E.; et al. Cancer Res 2002, 62, 4029-4033.). In short, LNCaP cell extracts were prepared by sonication in NAALADase buffer [50 mM Tris (pH 7.4) and 0.5% Triton X-100]. Cell lysates were incubated with or without inhibitor at 37° C. for 10 minutes. Following the incubation the radiolabeled substrate N-acetyl-L-aspartyl-L-(3,4-^3H)glutamate (NEN Life Science Products, Boston, Mass.) was added to a final concentration of 30 nM at 37° C. for 10-15 min. The reaction was stopped by the addition of an equal volume of ice-cold 100 mM sodium phosphate and 2 mM EDTA. Products were partitioned by AG 1-X8 formate resin (Bio-Rad Laboratories) anion exchange chromatography, eluted with 1 M sodium formate, and quantified by liquid scintillation counting. […] Assays were performed in triplicate with the entire inhibition study being repeated at least once to confirm affinity and mode of inhibition. Data were collected during linear phase of hydrolysis (i.e., <20% cleavage of total substrate). Enzyme inhibitory constants (Ki values) were generated using the Cheng-Prusoff conversion (Cheng, Y.; Prusoff, W. H. Biochem Pharmcol 1973, 22, 3099-3108).

[3] = test system: PSMA+ PC3 PIP cells; test: In vitro fluorescence microscopy in PC3 PIP and PC3 flu cells; assay type: cell-based, human; conditions: excitation 494 nm, emission 628 nm, 1 h incubation
Protocol: Coordination of the bisquinoline moiety of L2 with Re(CO)3 renders this complex fluorescent. Accordingly, microscopy was performed using ReL2 in live cells (FIG. 2). […] The mechanism of internalization of PSMA has been studied previously, however only antibodies and antibody conjugates have been used, rather than small molecules (Rajasekaran, S. A.; et al. Mol Biol Cell 2003, 14, 4835-4845; Moffatt, S.; et al. Gene Ther 2006, 13, 761-772).
Following fresh preparation of ReL2, 10,000 PC3 PIP and PC3 flu cells were seeded separately into each of four wells of a Lab-Tek II 8-well chamber slide (Fisher Scientific). The cells were cultured as described above and were allowed to attach to the bottom of the wells overnight at 37° C. in 5% CO2 in air. […] The cells were then returned to the incubator for one hour to enable binding. Each well was then carefully washed by removing the supernatant followed by addition of warm culture media for 30 seconds. The wash media was then removed and added to the contents of the well chambers. Dako Cytomation mounting medium was then applied and a glass coverslip was added. The mounting medium was allowed to dry at ambient temperature for 20 min prior to storage of the slide at 4° C. overnight. The cells were then viewed using an Olympus BX61 fluorescence microscope equipped with a Semrock DAPI/FITC/Texas Red triple filter cube.

SMILES | blockade of [^99mTc]L1 binding to tumor and renal cortex [1] | Ki ([2]; LNCaP cell extracts, Cheng-Prusoff conversion, read-out: Ki (PSMA inhibitory activity)) [nM] | fold higher PSMA inhibitory activity than ReL1 ([2]; relative to ReL1) [fold] | fluorescent signal in live cells (internalization) [3]
O=C(O)CCC(CP(=O)(O)O)C(=O)O (stereo not shown) [PMPA, 2-(phosphonomethyl)pentanedioic acid] | capable of eliminating binding of [^99mTc]L1 | – | – | –
O=C(O)CCC(NC(=O)NC(CCCCNC(=O)CCCCCCC(=O)NC(CCCCN(Cc1ccc2ccccc2n1)Cc1ccc2ccccc2n1)C(=O)O)C(=O)O)C(=O)O.[Br-].[C-]#[O+].[C-]#[O+].[C-]#[O+].[Re+] (stereo not drawn) [ReL2, Tricarbonyl(2-[3-(5-{7-[5-(bis-quinolin-2-ylmethyl-amino)-1-carboxy-pentylcarbamoyl]-heptanoylamino}-1-carboxy-pentyl)-ureido]-pentanedioic acid) rhenium bromide] | – | 0.5 | 20 | weak but observable fluorescent signal from within the PSMA+ PC3 PIP cells
